Assay results reported in article PMC10996616 (bioRxiv, 2024).

Legend:
[1] = biological target: PaFS (full-length fusicoccadiene synthase) (Diaporthe amygdali, UniProt A2PZA5); experiment: EnzChek pyrophosphate release, steady-state kinetics, A360; assay type: biochemical; details: Mg2+ 2.5 mM, pH 7.5; cyclization to fusicoccadiene; cyclase domain
[2] = biological target: PaFSCY (individual cyclase domain of fusicoccadiene synthase) (Diaporthe amygdali, UniProt A2PZA5); experiment: as above; assay type: biochemical; details: Mg2+ 2.5 mM, pH 7.5; cyclization to fusicoccadiene
Chain of PaFSCY (individual cyclase domain of fusicoccadiene synthase) (A2PZA5 1-344): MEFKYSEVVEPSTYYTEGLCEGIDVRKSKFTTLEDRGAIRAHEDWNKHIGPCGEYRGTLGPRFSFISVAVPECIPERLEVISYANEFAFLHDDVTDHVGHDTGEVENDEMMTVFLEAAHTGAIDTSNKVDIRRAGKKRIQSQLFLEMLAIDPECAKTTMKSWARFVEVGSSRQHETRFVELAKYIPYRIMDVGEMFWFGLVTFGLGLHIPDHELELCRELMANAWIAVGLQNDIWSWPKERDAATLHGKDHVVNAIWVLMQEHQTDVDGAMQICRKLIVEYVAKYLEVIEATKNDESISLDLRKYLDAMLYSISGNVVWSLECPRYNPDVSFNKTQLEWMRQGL

Chain of PaFS (full-length fusicoccadiene synthase) (A2PZA5 whole entry, the tested form may be a part): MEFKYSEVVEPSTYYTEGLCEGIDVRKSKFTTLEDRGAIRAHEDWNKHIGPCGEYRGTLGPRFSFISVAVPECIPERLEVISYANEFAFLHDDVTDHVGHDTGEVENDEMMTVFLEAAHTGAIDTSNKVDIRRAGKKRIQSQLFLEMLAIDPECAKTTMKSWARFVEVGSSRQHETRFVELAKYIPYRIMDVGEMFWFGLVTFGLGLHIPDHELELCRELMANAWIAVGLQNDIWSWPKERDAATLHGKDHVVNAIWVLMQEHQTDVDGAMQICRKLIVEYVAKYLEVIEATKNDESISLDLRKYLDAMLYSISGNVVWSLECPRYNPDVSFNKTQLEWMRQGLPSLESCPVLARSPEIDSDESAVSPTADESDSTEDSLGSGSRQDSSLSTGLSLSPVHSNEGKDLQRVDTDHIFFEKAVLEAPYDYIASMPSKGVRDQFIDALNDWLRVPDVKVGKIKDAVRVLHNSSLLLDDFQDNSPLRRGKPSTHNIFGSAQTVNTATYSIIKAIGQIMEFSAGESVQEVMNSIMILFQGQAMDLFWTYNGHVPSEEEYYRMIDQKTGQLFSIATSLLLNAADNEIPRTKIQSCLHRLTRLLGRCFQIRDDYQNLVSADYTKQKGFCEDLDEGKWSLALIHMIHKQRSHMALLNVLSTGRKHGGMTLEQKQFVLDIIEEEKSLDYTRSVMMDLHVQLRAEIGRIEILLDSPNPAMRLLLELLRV

With `CC(C)=CCC/C(C)=C/CC/C(C)=C/CC/C(C)=C/COP(=O)(O)OP(=O)(O)O` [GGPP, geranylgeranyl diphosphate] as the compound, how does the KM [1] read?
The KM was “(PaFS, PaFSLL, and PaFSCY) are most efficient”.

What about the KM [2] of the same compound?
The KM was “(PaFS, PaFSLL, and PaFSCY) are most efficient”.
